Reference: patent US8501961B2, “HIV protease inhibitors and methods for using” (priority 2008, dated 2013)

Experiments:
HIV-1 protease = HIV-1 protease (Human immunodeficiency virus type 1 group M subtype B (isolate HXB2) (HIV-1), UniProt P04585); assay: HIV-1 protease enzyme inhibitory assay (protocol of Toth and Marshall); type: biochemical; conditions: for fold reduction in enzymatic inhibitory potency with respect to 3d: vs 3d; for potency compared to 3i: vs 3i
Description: In another embodiment, inhibitors described herein contain a (R)-hydroxyethylamine sulfonamide isostere with a p-methoxysulfonamide as the P2′-ligand and various designed cyclic ethers and polyethers as the P2-ligands. In another embodiment, assays are described herein for evaluating compounds. Illustrative inhibitors described herein are initially evaluated in an enzyme inhibitory assay utilizing a protocol described by Toth and Marshall (Toth, M. V.; Marshall, G. R. A simple, continuous fluorometric assay for HIV protease. Int. J. Pep. Protein Res. 1990, 36, 544-550). […]

HIV-1-LAI = assay: Antiviral assay in MT-2 cells, inhibition of HIV-1-elicited cytopathic effect; type: cell-based; conditions: Human immunodeficiency virus 1, T-lymphoid, MT-2 human T-lymphoid cells exposed to HIV-1-LAI
[1] = Table 1, mean values of at least four determinations
[2] = Table 3, means of at least two experiments

## COc1ccc(S(=O)(=O)N(CC(C)C)C[C@@H](O)[C@H](Cc2ccccc2)NC(=O)O[C@H]2CCCOCOC2)cc1 [Inhibitor 3a, (1S,2R)-{1-Benzyl-2-hydroxy-3-[isobutyl(4-methoxybenzenesulfonyl)amino]propyl}carbamic acid (1S)-3,5-dioxacyclooctan-1-yl ester]
HIV-1 protease; [1]
  Ki: 0.15 ± 0.019 nM

## COc1ccc(S(=O)(=O)N(CC(C)C)C[C@@H](O)[C@H](Cc2ccccc2)NC(=O)O[C@@H]2CCCCOC2)cc1 [Inhibitor 3e, (1S,2R)-{1-Benzyl-2-hydroxy-3-[isobutyl(4-methoxybenzenesulfonyl)amino]propyl}carbamic acid (R)-oxepan-3-yl ester]
HIV-1 protease; [1]
  Ki: 0.81 ± 0.12 nM
HIV-1 protease
  fold reduction in enzymatic inhibitory potency with respect to 3d: ~30 fold

## COc1ccc(S(=O)(=O)N(CC(C)C)C[C@@H](O)[C@H](Cc2ccccc2)NC(=O)O[C@H]2CCCOCC2)cc1 [Inhibitor 3f, (1S,2R)-{1-Benzyl-2-hydroxy-3-[isobutyl(4-methoxybenzenesulfonyl)amino]propyl}carbamic acid (S)-oxepan-4-yl ester]
HIV-1 protease; [1]
  Ki: 0.74 ± 0.15 nM
HIV-1 protease
  fold reduction in enzymatic inhibitory potency with respect to 3d: ~30 fold

## COc1ccc(S(=O)(=O)N(CC(C)C)C[C@@H](O)[C@H](Cc2ccccc2)NC(=O)OC2CCCCCC2)cc1 [Inhibitor 3g, (1S,2R)-{1-Benzyl-2-hydroxy-3-[isobutyl(4-methoxybenzenesulfonyl)amino]propyl}carbamic acid Cycloheptanyl ester]
HIV-1 protease; [1]
  Ki: 27 ± 0.81 nM

## COc1ccc(S(=O)(=O)N(CC(C)C)C[C@@H](O)[C@H](Cc2ccccc2)NC(=O)OC2COCCOCCOCCOC2)cc1 [Inhibitor 3j, (1S,2R)-{1-Benzyl-2-hydroxy-3-[isobutyl(4-methoxybenzenesulfonyl)amino]propyl}carbamic acid 3,6,9,12-tetraoxacyclotridecan-1-yl ester]
HIV-1 protease; [1]
  Ki: 33 ± 1.9 nM

## COc1ccc(S(=O)(=O)N(CC(C)C)C[C@@H](O)[C@H](Cc2ccccc2)NC(=O)OC2COCCOCOCCOC2)cc1 [Inhibitor 3k, (1S,2R)-{1-Benzyl-2-hydroxy-3-[isobutyl(4-methoxybenzenesulfonyl)amino]propyl}carbamic acid 3,6,8,11-tetraoxacyclododecan-1-yl ester]
HIV-1 protease; [1]
  Ki: 6.3 ± 0.57 nM
HIV-1 protease
  potency compared to 3i: more than 2 fold
HIV-1 protease; vs 3j
  fold potency enhancement compared to inhibitor 3j: 5 fold
HIV-1-LAI
  IC50: > 1000 nM

## COc1ccc(S(=O)(=O)N(CC(C)C)C[C@@H](O)[C@H](Cc2ccccc2)NC(=O)OC2COCCS(=O)(=O)CCOC2)cc1 [Inhibitor 3l, (1S,2R)-{1-Benzyl-2-hydroxy-3-[isobutyl(4-methoxybenzenesulfonyl)amino]propyl}carbamic acid 3,9-dioxa-6-thiacyclodecan-1-yl 6,6-dioxide ester]
HIV-1 protease; [1]
  Ki: 1.9 ± 0.2 nM
HIV-1 protease
  potency compared to 3i: 9 fold
HIV-1-LAI
  IC50: > 1000 nM

## COc1ccc(S(=O)(=O)N(CC(C)C)C[C@@H](O)[C@H](Cc2ccccc2)NC(=O)OC2COCCN(C)CCOC2)cc1 [Inhibitor 3m, (1S,2R)-{1-Benzyl-2-hydroxy-3-[isobutyl(4-methoxybenzenesulfonyl)amino]propyl}carbamic acid N-methyl-1,7-dioxa-4-azocyclodecan-9-yl ester]
HIV-1 protease; [1]
  Ki: 19 ± 0.76 nM
HIV-1 protease
  potency compared to 3i: no change in inhibitory activity
HIV-1-LAI
  IC50: > 1000 nM

## COc1ccc(S(=O)(=O)N(CC(C)C)C[C@@H](O)[C@H](Cc2ccccc2)NC(=O)O[C@H]2CC3OCO[C@@H]3C2)cc1 (stereo partly drawn) [Inhibitor 126, (1′S,2′R)-{1′-Benzyl-2′-hydroxy-3′-[isobutyl(4-methoxybenzenesulfonyl)amino]propyl} carbamic acid (1β,2β,4α)-1,2-(methylenedioxy)cyclopent-4-yl ester]
HIV-1 protease; [2]
  Ki: 0.4 ± 0.04 nM
HIV-1 protease; vs 102
  fold less potent than the syn isomer 102: 3.5 fold

## COc1ccc(S(=O)(=O)N(CC(C)C)C[C@@H](O)[C@H](Cc2ccccc2)NC(=O)O[C@H]2CC3OCCO[C@@H]3C2)cc1 (stereo partly drawn) [Inhibitor 129, (1′S,2′R)-{1′-Benzyl-2′-hydroxy-3′-[isobutyl(4-methoxybenzenesulfonyl)amino]propyl} carbamic acid (1β,2β,4α)-1,2-(ethylenedioxy)cyclopent-4-yl ester]
HIV-1 protease; [2]
  Ki: 0.5 ± 0.04 nM
